Results: US20250283800A1, “PROBES FOR FLUORESCENCE IMAGING” (The General Hospital Corporation, priority 2022, published 2025)

How the values were obtained:
[1] = Fluorescence emission before/after photolysis at pH=8 (spectroscopic studies of photo reactions); assay type: physicochemical
Procedure: FIG. 16. Spectroscopic studies of photo reactions for different FLASH-off probes. A. Schematic depiction of the photo reactions for FLASH-off 500-650 (1a-d respectively) with the absorbance and emission spectra scans of the photo reactions (5 μM) in (citric acid+Na2HPO4 buffer, pH=8) before (red) and after (dark) irradiation 1 min 365 nm lamp. All spectra were taken in triplicates. B. Pictures of solutions of panel A in white light (top and bottom) and under UV light (middle).
Photolysis experiments. Solutions for compounds 1a-d were made in the corresponding buffers (pH=3-8) at a concentration of 1-100 μM. The samples were irradiated using different UV light sources (i) LED light source (405 nm, 1.14 mW cm^−2, LuxeonStar SZ-05-U3); UV lamp (˜365 nm, 0.32 mW cm^−2; UVL-28 EL Series, UVP) at different power and time settings (1 s-5 min). Fluorescence intensity was measured at the corresponding λmax of emission before irradiation (t=0 min) and after irradiation (t=1, 2, 3, and 5 min). The data were plotted as the integrated fluorescence intensity normalized to the initial intensity (I=1).

[2] = system: human FFPE tonsil sections; test: Multiplexed tissue imaging and quenching in FFPE tonsil sections
Procedure: FIG. 23. Quenching can be spatially controlled. A. Focused local quenching experiment (top) in tonsil tissue sections using an epifluorescent microscope. Local quenching was performed using a 40× magnification (DAPI, 8 s) and read-out was performed with 10× magnification (647 nm channel). (<90%) of fixed human tonsil stained with CD45-FLASH-off 650. Whole sample quenching (bottom) was achieved by soaking the sample with buffer at pH=8.4 and using an external 405 nm lamp placed at about 1 cm distance for 2 min. Scale bar=[…] (top), […] (bottom).
Human tissue sections. De-identified formaldehyde-fixed paraffin-embedded tissue sections were commercially obtained from Biomax (HuFOT161, Biomax). Tissue sections were de-paraffinized, rehydrated, and antigen-retrieved in pH 9antigen retrieval buffer. Then sections were blocked with Intercept Blocking buffer (LI-COR) for 30 min before antibody staining for FLASH-off FFPE. Tissues were incubated with FLASH-off antibody conjugates for 30 minutes followed by rinses. […]
We prepared four antibody-FLASH-off conjugates that recognize human immune markers including CD45, CD11c, CD11b, and Pan-CK. […] Regions of high immune cell density were localized and the location of the selected immune markers was assessed within the distinctive morphological structures of tonsils tissue. […]

spirocyclization with increasing pH [1] | SMILES | signal intensity of non-photoquenchable stains after UV light irradiation [2]
did not proceed with increasing pH | CNC(=O)c1ccccc1Cc1c2ccc(=N)c(S(=O)(=O)O)c-2oc2c(S(=O)(=O)O)c(N)ccc12 [Compound 7a] | –
– | N=C(N)c1ccc(-c2cc3ccc(C(=N)N)cc3[nH]2)cc1 [DAPI] | without causing an apparent decrease in signal intensity
